Source: patent publication US20220170930A1, “METHOD FOR SCREENING COMPOUND FOR TREATING OR PREVENTING POLYQ-RELATED NEURODEGENERATIVE DISEASES” (FUDAN UNIVERSITY, priority 2019, published 2022)

How the values were obtained:
Q46-GFP = assay: OI-RD affinity reaction parameters with Q46-GFP; assay type: binding
Excerpt: (1) PolyQ-GFP cDNA sequence (expressing Met-polyQ-GFP, wherein polyQ was Q72 or Q25) was synthesized de novo and subcloned into pcDNA vector. […] And the same method was used to obtain cells expressing Q53-GFP, cells expressing Q46-GFP, and cells expressing Q38-GFP.

[1] = molecular target: T1, mutant ATXN1 protein (His-ATXN1-Q92) (Homo sapiens, UniProt P54253, INS208QQQQQQQQQQQQQQQQQQQQQQQQQQQQQQQQQQQQQQQQQQQQQQQQQQQQQQQQQQQQQQQQQQQQQQQQQQQQQQQQ); assay: HTRF mutant ATXN1 level in His-ATXN1-Q92-expressing cells; assay type: cell-based; conditions: 100 nM, 2 days, anti-His-Tb/MW1-D2
T1 construct: expressed in transfected cells; host or cells: HEK293T cells (ATCC, CRL-3216)

MBP-ATXN3-Q28 = molecular target: T2, MBP-ATXN3-Q28 (Homo sapiens, UniProt P54252, INS305QQQQQQQQQQQQQQQQQQ); assay: OI-RD affinity screening with MBP-ATXN3-Q28; assay type: binding; conditions: OI-RD difference images
T2 construct: His8 with TEV protease cleavage site; made in house; host or cells: Escherichia coli Rosetta(DE3)pLsyS
Protocol: Screening was conducted using a method similar to 1.1, except for that the target protein HTTexon1-Q72-MBP in step (1) of 1.1 was replaced with MBP-ATXN3-Q68 and the target protein HTTexon1-Q25-MBP in step (2) of 1.1 was replaced with MBP-ATXN3-Q28, to obtain compounds that can selectively bind to ATXN3 with abnormally expanded polyQ (MBP-ATXN3-Q68).

T1 sequence (P54253 with tags, fused parts or gaps with the stated changes): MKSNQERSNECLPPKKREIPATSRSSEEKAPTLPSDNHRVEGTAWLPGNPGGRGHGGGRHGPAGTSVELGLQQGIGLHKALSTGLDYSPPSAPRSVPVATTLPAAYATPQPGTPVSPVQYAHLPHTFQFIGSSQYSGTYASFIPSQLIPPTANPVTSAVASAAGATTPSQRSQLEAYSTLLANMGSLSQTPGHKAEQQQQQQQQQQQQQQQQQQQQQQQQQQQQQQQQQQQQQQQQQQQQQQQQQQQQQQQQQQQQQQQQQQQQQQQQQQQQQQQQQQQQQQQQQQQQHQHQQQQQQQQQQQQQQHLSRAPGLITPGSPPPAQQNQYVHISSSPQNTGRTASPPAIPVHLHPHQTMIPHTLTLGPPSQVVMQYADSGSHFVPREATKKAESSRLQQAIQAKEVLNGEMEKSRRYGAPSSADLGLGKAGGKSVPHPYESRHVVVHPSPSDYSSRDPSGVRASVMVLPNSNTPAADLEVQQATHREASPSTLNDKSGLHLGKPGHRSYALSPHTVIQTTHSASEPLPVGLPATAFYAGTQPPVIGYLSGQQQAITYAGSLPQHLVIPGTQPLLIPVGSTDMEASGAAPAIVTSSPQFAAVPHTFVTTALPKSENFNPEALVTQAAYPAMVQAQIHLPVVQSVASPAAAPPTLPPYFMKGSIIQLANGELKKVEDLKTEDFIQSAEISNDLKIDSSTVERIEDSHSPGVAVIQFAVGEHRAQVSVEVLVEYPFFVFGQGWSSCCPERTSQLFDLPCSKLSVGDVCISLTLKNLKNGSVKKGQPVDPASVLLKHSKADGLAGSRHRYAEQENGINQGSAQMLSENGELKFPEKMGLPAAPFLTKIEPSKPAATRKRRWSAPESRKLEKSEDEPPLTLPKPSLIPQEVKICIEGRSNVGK
T2 sequence (P54252 with tags, fused parts or gaps isoform P54252-4 with the stated changes): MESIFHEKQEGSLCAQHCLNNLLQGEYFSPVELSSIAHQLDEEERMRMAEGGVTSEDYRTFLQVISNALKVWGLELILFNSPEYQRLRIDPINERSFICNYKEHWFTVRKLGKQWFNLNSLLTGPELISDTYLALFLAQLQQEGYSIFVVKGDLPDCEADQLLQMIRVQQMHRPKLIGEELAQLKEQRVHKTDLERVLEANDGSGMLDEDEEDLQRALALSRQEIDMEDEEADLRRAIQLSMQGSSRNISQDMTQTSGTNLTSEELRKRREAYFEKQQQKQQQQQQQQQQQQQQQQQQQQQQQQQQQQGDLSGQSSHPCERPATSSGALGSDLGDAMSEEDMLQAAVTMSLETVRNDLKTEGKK

## O=C1Nc2ccc(I)cc2/C1=C/c1cc(Br)c(O)c(Br)c1 [compound 1, GW5074]
Q46-GFP
  Kd: 60.2 nM
  Koff: 0.0183 min⁻¹
  Kon: 0.000304 min/nM
[1]
  level of mutant ATXN1 protein (His-ATXN1-Q92): Decreased levels of mutant ATXN1 were observed
MBP-ATXN3-Q28
  binding to MBP-ATXN3-Q28: did not bind
